{"source": "patent USRE40387E1", "about": "“Pharmaceutical compositions, dosage forms and methods for oral administration of epothilones” (Bristol-Myers Squibb Company, priority 2001, dated 2008)", "key": {"[1]": {"assay": "Stability of liquid formulation in 80:20 propylene glycol:ethanol", "assay_type": "physicochemical", "settings": "for can be stored for up to: 2.5 mg/mL to 12.5 mg/mL in 80:20 propylene glycol:ethanol", "experimental": "The stability of compound (A) in 80:20 propylene glycol:ethanol was evaluated by reconstituting 25 mg Compound (A) with 80:20 propylene glycol:ethanol to provide a liquid oral dosage form at concentrations of 2.5 mg/mL to 12.5 mg/mL. The resulting liquid oral dosage form was then stored up to 20 hours at ambient temperature (20° C. to 25° C.) and room light and at refrigerated temperature (2° C. to 8° C.).\nThe change in total impurities was attributed to an increase of an oxazine impurity/degradant whose structure is depicted below: [drawing 10] Samples were analyzed using HPLC with a 75 mm×4.6 mm i.d., 3.5 :m particle sizeWaters Symmetry Shield RP8 column and with UV detection at 240 nm. 10 :L injection volumes were used, the column was maintained at ambient temperature and the flow rate was 1 mL/min. Analysis times were 1 hour and samples were eluted using gradient elution with a mobile phase of water (0.05% acetic acid) (mobil phase A) and a mobile phase of acetonitrile (0.05% acetic acid). The elution profile is described in the table below."}, "[2]": {"assay": "Single dose oral toxicity study in dogs", "assay_type": "in vivo", "settings": "oral solution 0.4 mL/kg", "experimental": "The mean (SD) [n=3] […] Although the oral formulation for both studies was identical, the total volume of the oral solution administered in the current study was about 1.3 mL/kg while that in the toxicology study was 0.4 mL/kg. […] Compound (A) is an acid labile drug, thus, the higher exposure after oral solution in the current study compared to the toxicology study is likely related to better protection from gastric acid degradation."}}, "data": [{"smiles": "C/C(=C\\c1csc(C)n1)[C@@H]1C[C@@H]2O[C@]2(C)CCC[C@H](C)[C@H](O)[C@@H](C)C(=O)C(C)(C)[C@@H](O)CC(=O)N1", "note": "(relative stereo) [Compound (A), [1S-[1R*,3R*(E),7R*,10S*,11R*,12R*,16S*]]-7,11-dihydroxy 8,8,10,12,16-pentamethyl-3-[1-methyl-2-(2-methyl-4-thiazolyl)ethenyl-4-aza-17-oxobicyclo[14.1.0]heptadecane-5,9-dione]", "values": [{"measurement": "can be stored for up to", "setting": "[1]; ambient temperature", "value": "up to 6 hours"}, {"measurement": "can be stored for up to", "setting": "[1]; refrigerated temperature", "value": "up to 20 hours"}, {"measurement": "total impurities/degradants and potency", "setting": "[1]; ambient temperature (20° C. to 25° C.) and room light, 20 hours", "value": "increase in total impurities/degradants and a decrease in potency"}, {"measurement": "total impurities/degradants", "setting": "[1]; refrigerated temperature (2° C. to 8° C.), 20 hours", "value": "slight increase in total impurities/degradants"}, {"measurement": "appearance of the liquid oral dosage form", "setting": "[1]; up to 20 hours, either storage condition", "value": "No changes from initial"}, {"measurement": "dose-normalized mean AUC", "setting": "[2]", "value": 257, "unit": "ng·h/mL"}]}]}
